The source made the active and inactive calls. The rule behind the calls is not given here.
Assays:
physchem [1] = details: 1:1 CH3CN/H2O
physchem [2] = details: 1:1 CH3CN/H2O; remark: listed apart in the source
physchem [3] = details: 1:1 CH3CN/H2O; remark: listed apart in the source
physchem [4] = details: 1:1 CH3CN/H2O; remark: listed apart in the source
SJSA-1 [5] = assay: cells; details: Homo sapiens
physchem [6] = details: 1:1 CH3CN/H2O solution
physchem [7] = details: 1:1 MeOH/H2O solution
SJSA-1 [8] = details: Homo sapiens, 200 mg/kg
cells [9] = details: Homo sapiens, HCT-116
cells [10] = details: Homo sapiens, HCT-116; remark: listed apart in the source

Structure (SMILES): CC(C)(C)C[C@@H]1N[C@@H](C(=O)NCCN2CCOCC2)[C@H](c2cccc(Cl)c2F)[C@]12C(=O)Nc1cc(Cl)ccc12
- remaining at 0 h (physchem [1]): 98.1%
- remaining at 24 h (physchem [2]): 90.8%
- remaining at 72 h (physchem [3]): 86.9%
- remaining at 144 h (physchem [4]): 82.7%

Structure (SMILES): C[C@]1(O)C[C@@H](NC(=O)[C@@H]2NC3(CCCCC3)[C@@]3(C(=O)Nc4cc(Cl)ccc43)[C@H]2c2cccc(Cl)c2F)C1
- IC50 (SJSA-1 [5]): 160 nM
- remaining at 0 h (physchem [1]): 100%
- remaining at 24 h (physchem [2]): 100%
- remaining at 72 h (physchem [3]): 100%
- remaining at 144 h (physchem [4]): 100%

Structure (SMILES): CCC1(CC)N[C@@H](C(=O)NCC[C@H](O)CO)[C@H](c2cccc(Cl)c2F)[C@]12C(=O)Nc1cc(Cl)ccc12
- IC50 (SJSA-1 [5]): > 10000 nM

Structure (SMILES): CC(C)(C)C[C@@H]1N[C@@H](C(=O)N[C@H]2C[C@@](C)(O)C2)[C@H](c2cccc(Cl)c2F)[C@]12C(=O)Nc1cc(Cl)ccc12
- remaining at 0 h (physchem [1]): 100%
- remaining at 24 h (physchem [2]): 99.6%
- remaining at 72 h (physchem [3]): 98.6%
- remaining at 144 h (physchem [4]): 97.7%
- degraded at 168 h (physchem [6]): 2%
- degraded at 168 h (physchem [7]): 2%

Structure (SMILES): C[C@]1(O)C[C@@H](NC(=O)[C@@H]2NC3(CCC3)[C@@]3(C(=O)Nc4cc(Cl)ccc43)[C@H]2c2cccc(Cl)c2F)C1
- IC50 (SJSA-1 [5]): 1680 nM

Structure (SMILES): O=C(N[C@H]1CC[C@H](O)CC1)[C@@H]1NC2(CCC2)[C@]2(C(=O)Nc3cc(Cl)ccc32)[C@H]1c1cccc(Cl)c1F
- IC50 (SJSA-1 [5]): 2000 nM

Structure (SMILES): O=C(N[C@H]1CC[C@H](O)CC1)[C@@H]1NC2(CCCCC2)[C@@]2(C(=O)Nc3cc(Cl)ccc32)[C@H]1c1cccc(Cl)c1F
- TGI (SJSA-1 [8]): Active
- IC50 (SJSA-1 [5]): 190 nM
- IC50 (cells [9]): 320 nM
- IC50 (cells [10]): > 10 µM

Structure (SMILES): O=C(N[C@H]1CC[C@H](O)CC1)[C@@H]1NC2(CCCC2)[C@@]2(C(=O)Nc3cc(Cl)ccc32)[C@H]1c1cccc(Cl)c1F
- IC50 (SJSA-1 [5]): 650 nM

Structure (SMILES): O=C(N[C@H]1CC[C@H](O)CC1)[C@@H]1NC2(CCCCCC2)[C@@]2(C(=O)Nc3cc(Cl)ccc32)[C@H]1c1cccc(Cl)c1F
- IC50 (SJSA-1 [5]): 2100 nM

Structure (SMILES): CCCC1(CCC)N[C@@H](C(=O)N[C@H]2CC[C@H](O)CC2)[C@H](c2cccc(Cl)c2F)[C@]12C(=O)Nc1cc(Cl)ccc12
- IC50 (SJSA-1 [5]): 6900 nM

Structure (SMILES): C[C@]1(O)C[C@@H](NC(=O)[C@@H]2NC3(CCC3)[C@]3(C(=O)Nc4cc(Cl)ccc43)[C@H]2c2cccc(Cl)c2F)C1
- IC50 (SJSA-1 [5]): 1460 nM

Structure (SMILES): O=C(N[C@H]1CC[C@H](O)CC1)[C@@H]1NC2(CCC2)[C@@]2(C(=O)Nc3cc(Cl)ccc32)[C@H]1c1cccc(Cl)c1F
- IC50 (SJSA-1 [5]): 1600 nM

Structure (SMILES): O=C(NCC[C@H](O)CO)[C@@H]1NC2(CCC2)[C@@]2(C(=O)Nc3cc(Cl)ccc32)[C@H]1c1cccc(Cl)c1F
- IC50 (SJSA-1 [5]): 2080 nM

Structure (SMILES): O=C(O)c1ccc(NC(=O)[C@@H]2NC3(CCCCC3)[C@@]3(C(=O)Nc4cc(Cl)ccc43)[C@H]2c2cccc(Cl)c2F)cc1
- IC50 (SJSA-1 [5]): 100 nM
- IC50 (cells [9]): 250 nM
- IC50 (cells [10]): > 10 µM

Structure (SMILES): O=C(NCCN1CCOCC1)[C@@H]1NC2(CCCCC2)[C@@]2(C(=O)Nc3cc(Cl)ccc32)[C@H]1c1cccc(Cl)c1F
- IC50 (SJSA-1 [5]): 300 nM
- remaining at 0 h (physchem [1]): 100%
- remaining at 24 h (physchem [2]): 100%
- remaining at 72 h (physchem [3]): 99.6%
- remaining at 144 h (physchem [4]): 99.2%

Structure (SMILES): O=C(NCC[C@H](O)CO)[C@@H]1NC2(CCC2)[C@]2(C(=O)Nc3cc(Cl)ccc32)[C@H]1c1cccc(Cl)c1F
- IC50 (SJSA-1 [5]): 1670 nM

Structure (SMILES): O=C(NCCN1CCOCC1)[C@@H]1NC2(CCC2)[C@]2(C(=O)Nc3cc(Cl)ccc32)[C@H]1c1cccc(Cl)c1F
- IC50 (SJSA-1 [5]): 1650 nM

Structure (SMILES): CC(C)(C)C[C@@H]1N[C@@H](C(=O)NCC[C@H](O)CO)[C@H](c2cccc(Cl)c2F)[C@]12C(=O)Nc1cc(Cl)ccc12
- remaining at 0 h (physchem [1]): 97.5%
- remaining at 24 h (physchem [2]): 95.8%
- remaining at 72 h (physchem [3]): 95.7%
- remaining at 144 h (physchem [4]): 91.4%

Structure (SMILES): CCC1(CC)N[C@@H](C(=O)N[C@H]2C[C@@](C)(O)C2)[C@H](c2cccc(Cl)c2F)[C@]12C(=O)Nc1cc(Cl)ccc12
- IC50 (SJSA-1 [5]): > 10000 nM

Structure (SMILES): CC1(C)N[C@@H](C(=O)N[C@H]2CC[C@H](O)CC2)[C@H](c2cccc(Cl)c2F)[C@]12C(=O)Nc1cc(Cl)ccc12
- IC50 (SJSA-1 [5]): 2900 nM

Structure (SMILES): CCC1(CC)N[C@@H](C(=O)NCCN2CCOCC2)[C@H](c2cccc(Cl)c2F)[C@]12C(=O)Nc1cc(Cl)ccc12
- IC50 (SJSA-1 [5]): > 10000 nM

Structure (SMILES): CCC1(CC)N[C@@H](C(=O)N[C@H]2CC[C@H](O)CC2)[C@H](c2cccc(Cl)c2F)[C@]12C(=O)Nc1cc(Cl)ccc12
- IC50 (SJSA-1 [5]): 5400 nM

Structure (SMILES): O=C(NCCN1CCOCC1)[C@@H]1NC2(CCC2)[C@@]2(C(=O)Nc3cc(Cl)ccc32)[C@H]1c1cccc(Cl)c1F
- IC50 (SJSA-1 [5]): 2300 nM

Structure (SMILES): O=C(NCC[C@H](O)CO)[C@@H]1NC2(CCCCC2)[C@@]2(C(=O)Nc3cc(Cl)ccc32)[C@H]1c1cccc(Cl)c1F
- IC50 (SJSA-1 [5]): 200 nM
- remaining at 0 h (physchem [1]): 100%
- remaining at 24 h (physchem [2]): 100%
- remaining at 72 h (physchem [3]): 100%
- remaining at 144 h (physchem [4]): 100%

— ChEMBL document CHEMBL3351696, “Design of chemically stable, potent, and efficacious MDM2 inhibitors that exploit the retro-mannich ring-opening-cyclization reaction mechanism in spiro-oxindoles” (J Med Chem, 2014)
